melting point	SMILES
115 to 116 °C	CCn1nc(C#N)c(Nc2ccc(F)cc2[N+](=O)[O-])n1
93 to 94 °C	Cc1cc(N2CCN(CC(=O)c3ccc(NS(C)(=O)=O)cc3)CC2)ccn1
103 °C	CC(=O)Nc1cc(C(F)(F)F)ccc1SCC#N
133 to 134 °C	O=[N+]([O-])c1c(Cl)cc(Cl)cc1CO
259 to 262 °C	Cn1c2ccc(Cl)cc2c2cc(C(=O)O)sc21
73 to 74 °C	OCC=Cc1ccc(-c2cnc(CSCCOc3ccccc3)o2)cc1
74 to 76 °C	COc1c(C)c(C)c2c(c1C)CC(CC(=O)O)O2 (racemic)
132 to 134 °C	COc1ccc(OC)c(C(O)c2cccc(N)c2)c1 (configuration not stated)
49 to 51 °C	CC(C)(CCCCOCCCCC(C)(C)C(=O)O)C(=O)O
206 to 207 °C	CCCn1nc2c(N)nc3ccccc3c2c1CCNC(=O)NCC
92 to 94 °C	COc1ccc(N2CCN(Cc3cn(C)c4ncccc34)CC2)cc1
117 to 118 °C	CCCCCCCCCCN1CC(C(=O)OC)N(S(=O)(=O)c2ccc(-c3ccc(Br)cc3)cc2)CC1=O (configuration not stated)
93 to 94 °C	Cc1oc(-c2ccccc2)nc1CCc1noc(COc2cccc(CC(=O)O)c2)n1
88 to 90 °C	CCOC(=O)c1oc2cccc(CCO)c2c1C
58 to 62 °C	COC(=O)c1ccc(OC2CCCCO2)cc1 (configuration not stated)
124 to 125 °C	CC1(c2ccccc2)SCN=C1COc1ccc(C#N)cn1 (configuration not stated)
240 to 241 °C	Oc1cc(-c2ccc(Cl)cc2)[nH]n1
95 °C	CN(CCCCCCNC(=O)NCCSCc1csc(NC(=N)N)n1)CCN(Cc1ccc(F)cc1)c1ccccn1
148 to 151 °C	COC(=O)C=Cc1cc(-n2nc(C)n(C(F)F)c2=O)c(Cl)cc1Cl
176 to 178 °C	CCCCOC(=O)Cc1cc2c(s1)CCN(C(=O)[C@H](Cc1ccc(O)cc1)NC(=O)c1ccc(C(=N)N)cc1)C2
154 °C	CC(C)n1cnc2c(Nc3ccc(F)cc3)nc(Cl)nc21
83 to 84 °C	CC(C)=NOc1cc(Cl)ccc1C#N
239 to 241 °C	Cc1cc(CNC(=O)c2cc(-n3cnn(Cc4ccc(F)cc4)c3=O)n[nH]2)[nH]n1
126 to 128 °C	COc1ccc2c(c1)cc(C1(O)C=CC(=O)C=C1)n2S(=O)(=O)c1ccccc1

melting point	SMILES
153 °C	COc1cc(S(N)(=O)=O)cc(C(=O)Cl)c1OC
213 to 220 °C	Cn1nnnc1-n1cc(C(=O)O)c(=O)c2cc(F)c(Cl)nc21
70.5 to 71 °C	CC(C)(C)C(=O)Nc1ccc(Cl)cc1F
130 to 132 °C	O=C(CN1CCC(n2c(=O)[nH]c3ccccc32)CC1)Nc1ccc(C2CCCCC2)cc1
98 to 99 °C	CCOC(=O)CCCOc1ccc(C(N)=O)c(OCC2CCCCC2)c1
245 to 248 °C	COc1cc(C=CC(=O)Nc2c(-c3ccccc3)c3cc(C)cc(C)c3oc2=O)cc(OC)c1OC(C)=O
> 260 °C	Nc1nc(N)nc(-c2ccc(S(=O)(=O)N3CCCCC3)cc2)n1
223 °C	CN(C(=O)C(Cl)(Cl)Cl)c1nc(C(Cl)(Cl)Cl)ns1
164 to 166 °C	OCC1Cc2c(c(Br)cc3c(-c4ccccc4)noc23)O1 (configuration not stated)
173 to 174 °C	CCCc1nc2c(N)nc3cc(OCCCN)ccc3c2n1CC(C)C
184 to 186 °C	CC(O)(c1ccc(F)cc1)C1CCNCC1 (configuration not stated)
189 to 191 °C	COc1ccc(-n2c(-c3ccc(Cl)cc3Cl)nc(C(=O)O)c2C)cc1
200 to 202 °C	CCC(=O)NC[C@H]1CN(c2ccc(N3CCC(=CC#N)CC3)c(F)c2)C(=O)O1
115 to 116 °C	CC(C)(C)c1cc(CCC(CCc2cc(C(C)(C)C)c(O)c(C(C)(C)C)c2)OC(=O)c2ccccc2)cc(C(C)(C)C)c1O
262 to 264 °C	O=C(Nc1ccc(Cl)cc1Cl)c1cc(Cl)c(Cl)[nH]1
187 °C	COc1ccc(C(=O)Nc2ccc3ccc(-c4ccccc4)nc3n2)cc1
325 to 327 °C	O=C(O)c1c[nH]c2c(=O)c3cc(Cl)ccc3oc2c1=O
162 to 166 °C	N#CC(=Cc1cc(F)ccc1[N+](=O)[O-])C(N)=O
135 to 142 °C	COC(=O)c1ccccc1-c1ccc(CNc2nc(C(F)(F)F)nc3ccccc23)cc1
83 to 86 °C	COCCNC(=S)n1nc(Oc2c(Cl)cc(C(F)(F)F)cc2Cl)cc1C
96 °C	CC1CCCN(C(=O)COc2cc(-c3ccccc3)nc3ccccc23)C1 (configuration not stated)
150 to 152 °C	CCc1nc2cc(Cl)c(F)cc2c(=O)n1CCc1ccccc1
183 °C	Cc1cccc(-c2nc3c(C)cccn3c2-c2ccnc(-c3ccc(OCC(N)=O)cc3)c2)n1
56 to 62 °C	COC(=O)Cc1ccc(OCCNC(=O)C2Cc3ccccc3N2S(=O)(=O)c2ccc(-c3cc(C(F)(F)F)ccc3Cl)cc2)c(F)c1 (configuration not stated)

melting point	SMILES
73 to 76 °C	O=C(CC1CCc2ccccc2C1=O)c1ccccc1 (configuration not stated)
140 to 141 °C	Cc1nc2c(cc1Cl)C(=O)OC2=O
118 to 119 °C	CCC1=C(C)CN(C(=O)NC2COc3cc(OC)ccc3C2)C1=O (configuration not stated)
118 to 120 °C	CC(=O)Nc1cc(C)nn1C(C)(C)C
180 °C	COC(=O)Cc1cccc(-c2nc(=O)c3ccccc3s2)n1
60 °C	Cn1ccc2c(C(=O)c3ccccc3OCCCCl)cccc21
113 to 115 °C	CNC(=O)c1cc(N)cc(C(F)(F)F)c1
59 to 60 °C	O=C(OCc1ccccc1)C(CO)N(C(=O)Cc1ccccc1)C(=O)OCc1ccccc1 (configuration not stated)
150 to 154 °C	COCCNC(=O)c1c(O)c2cnc(-c3ccccc3)nc2n(CCOC)c1=O
200 to 203 °C	CC(=O)Oc1ccc(Cn2c(-c3ccccc3)nc(Cl)c2CC(=O)O)cc1C
125 to 127 °C	COc1cc(OC)c([C@@H]2CCCC[C@H]2O)c(OC)c1 (racemic)
217 to 218 °C	COc1cc(C=CC=C2SC(=O)NC2=O)cc(OC)c1OCc1ccccc1
74 °C	Cc1cc(C)c(C(=O)Oc2ccccc2)c(O)c1C
157 to 158 °C	O=C(O)c1cnn(-c2ccc(C(F)(F)F)cc2)c1C(F)(F)F
192 to 196 °C	CCNc1cc(OC)ccc1S(=O)(=O)N1C(=O)C(N)(c2ccccc2Cl)c2cc(Cl)ccc21 (configuration not stated)
220 to 230 °C	CC(C)(C)C(NCCSC12CC3CC(CC(C3)C1)C2)C(=O)O (configuration not stated)
94 to 98 °C	C=CC12CCC3(C)C(F)C(O)CC3C1CCc1cc(O)ccc12 (configuration not stated)
68 to 70 °C	CCCCCCCCCCCCCCCCCCNC(=O)N1CCN(C(=O)c2ccc(CCl)cc2)CC1
114 °C	COC(=O)c1ccc(C#Cc2ccccc2)cc1
95 to 102 °C	CCCCCCCCCCCCc1cn(C(C(=O)Nc2c(OC)cc(OC)cc2OC)c2ccccc2)cn1 (configuration not stated)
84 to 85 °C	CCN(CC)CCOc1ccc(Nc2ncc3ccc(=O)n(C(C)C)c3n2)cc1
220 to 222 °C	CN1C(=O)C(C(=O)Nc2ccc(Cl)c(C(F)(F)F)c2)S(=O)(=O)c2ccc(Cl)cc21 (configuration not stated)
138 °C	O=S1(=O)c2cccc3cccc(c23)N1CCCCN1CCN(c2noc3ccccc23)CC1

SMILES	melting point
CN1C(=O)[C@H](NC(=O)/C=C/c2ccc3c(c2)OCO3)N=C(c2ccccc2)c2ccccc21	143 to 145 °C

Source: a melting point compilation (Tetko et al.; mined from patent text by program, amines drawn as free bases though some values may be those of a salt)
